For 37 molecules, AC50 results are on record in PubChem BioAssay AID463074 (Broad Institute, 2010).

Active and inactive are the calls of the source.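 How the source made its calls: active means AC50 no more than tenfold above the top dose tested, or full inhibition at every dose with a flat fit (cut at about 19 µM in these data); inconclusive means flat curve fit with inhibition between 30% and 70%, or poor fit; inactive means AC50 more than tenfold above the top dose tested.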

The assay concerns HMLE_sh_eGFP viability, CellTiter-Glo luminescence, 72 h. In words: viability loss of HMLE_sh_eGFP cells – cell-based, luminescence, counter-screen for HMLE_sh_ECad selective toxicity project, dose response (AID 463074).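 Further: counterscreen control line to flag general toxicity for the HMLE_sh_ECad screen; potency for loss of viability as luminescence drops below DMSO wells.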 For orientation: Counterscreens check selectivity or assay interference.
As to `O=S(=O)(Nc1ccc(O)c(Sc2nc3ccccc3s2)c1)c1cccc2ccccc12`, the AC50 (usually the concentration giving half of the maximal activity seen) was 5.83 µM.
Turning to `C=CCc1cccc(/C=N/NC(=O)c2ccc3nc[nH]c3c2)c1O`, the concentration at half-maximal activity (AC50) was 6.2 µM.
In the case of `O=c1[nH]c(=O)n(C2C[C@H](O)[C@@H](CO)O2)cc1C(F)(F)F` (some centres not stated), the AC50 was 0.946 µM.
Turning to `CNC(C)C(=O)NC(C(=O)N1CCCC1C(=O)NNc1ccccc1)C(C)C` (configuration not stated), the concentration at half-maximal activity (AC50) was 6.41 µM.
For the molecule `Cc1csc(NC(=S)Nc2cccc(Cl)c2)n1`, the AC50 is 10.4 µM.
The same measure for `CCCOc1ccc(-c2nc(N3CCN(CC)CC3)c3ccccc3n2)cc1`: 6.44 µM; for `Cc1nn(-c2ccccc2)c(N2CCCCC2)c1/C=N/O`: 1.69 µM.
Regarding `CCOc1cc(S(=O)(=O)Nc2ccc(CC)cc2)ccc1Cl`, the AC50 was 7.02 µM.
Turning to `CCc1ccc2[nH]c3nc(N/N=C/c4cccc(O)c4)nnc3c2c1`, the AC50 is less than 0.16 µM.
Take `CCC(C)Sc1cccc(-c2nc3cc(C)ccn3c2NCc2ccccc2)c1` (configuration not stated): the half-maximal activity concentration (AC50) is 4.89 µM.
For the molecule `CC(C)=CCOc1ccc([C@@H]2COc3c(ccc4c3C=CC(C)(C)O4)C2)c(O)c1`, the AC50 is 3.04 µM.
Consider `O=C(NC(=S)Nc1cccc(Cl)c1N1CCCCC1)c1ccc2c(c1)OCCO2`, for which the concentration at half-maximal activity (AC50) was 1.52 µM.
With `CCOC(=O)C(C(=O)OCC)C(Nc1ccc(Br)cc1)c1ccccc1` (configuration not stated), the AC50 was 19.8 µM.
The same measure for `O=C1CC(N(CCc2ccccc2)C(=S)Nc2cc(Cl)ccc2Cl)C(=O)N1c1c(Cl)cccc1Cl` (configuration not stated): > 19.5 µM (inactive); for `Cc1onc(-c2c(Cl)cccc2Cl)c1C(=O)N/N=C(\N)COc1ccc(Cl)cc1`: 3.8 µM; for `O=c1c2ccccc2nc2n1CCc1c-2[nH]c2ccccc12`: > 19.5 µM (inactive).
Regarding `Cc1ccccc1/C=N/Nc1ccnc2cc(Cl)ccc12`, the AC50 was 4.44 µM.
As to `O=C(/C=C/c1ccc(Cl)cc1)c1ccc([N+](=O)[O-])o1`, the AC50 is 2.19 µM.
For `S=C(NCCC(c1ccccc1)c1ccccc1)Nc1cccc(Cl)c1`, the concentration at half-maximal activity (AC50) was 2.79 µM.
In the case of `Cc1ccc(NC(=O)NCC2CCN(Cc3cccc(Cl)c3)CC2)cc1Cl`, the AC50 was 6.9 µM.
As to `Cn1cnc(Sc2ncnc3nc[nH]c23)c1[N+](=O)[O-]`, the half-maximal activity concentration (AC50) was 3.26 µM.
For the molecule `O=C(O)c1ccc(C=C(c2nc3ccccc3s2)c2nc3ccccc3s2)cc1`, the AC50 was 5.12 µM.
For the molecule `CC1CCN(S(=O)(=O)c2ccc3c(c2)C(=NO)c2cc(S(=O)(=O)N4CCC(C)CC4)ccc2-3)CC1`, the AC50 was 1.01 µM.
Turning to `CC[C@@H]1CC=C[C@H]2[C@H]1C(=O)N(Cc1ccccc1)[C@H]2c1ccc(OC)c(Cl)c1`, the concentration at half-maximal activity (AC50) is 7.13 µM.
`C=C(C)COc1ccc(-c2n[nH]c(C)c2-c2ccc(Br)cc2)c(O)c1`: the AC50 was 3.25 µM.
Take `O=C(Nc1cccc(-c2csc(Nc3cccc(C(F)(F)F)c3)n2)c1)c1ccccc1`: the AC50 was 3.42 µM.
Consider `C/C(=N/Nc1ccc([N+](=O)[O-])cc1)c1ccc(C)cc1C`, for which the AC50 is 7.68 µM.
In the case of `CCCCNc1c(-c2cccc(Sc3ccc(OC)cc3)c2)nc2ccccn12` it was 6.56 µM; in that of `Cc1noc(C)c1COc1cccc(C(=O)Nc2ccc(OCc3ccccc3)cc2)c1`, 15.5 µM.
The same measure for `CC1(C)CC2CC(C)(CN2/C=N/c2sc3c(c2C#N)CC(C)(C)NC3(C)C)C1` (configuration not stated): 2.59 µM; for `COc1ccccc1-c1sc2cc3c(cc2c1C#Cc1cncn1C)OCO3`: 5.73 µM.
As to `C/C(=N\Nc1ccccc1)c1c(O)n(C)c(=O)n(C)c1=O`, the half-maximal activity concentration (AC50) is 4.05 µM.
For `Cc1ccc(NS(=O)(=O)c2sc3ccc(Cl)cc3c2C)cc1`, the AC50 is 3.78 µM.
For the molecule `C=C(C)COc1ccc(-c2nc(N)ncc2-c2ccc(Cl)cc2)c(O)c1`, the concentration at half-maximal activity (AC50) was 4 µM.
As to `Cc1cc(N2CCN(C)CC2)nc2ccc(NC(=S)NCCC(C)C)cc12`, the concentration at half-maximal activity (AC50) is 7.91 µM.
In the case of `N#CC1=C(N)N2C(=C(C#N)C1c1ccc(Br)cc1)Nc1ccccc12` (configuration not stated) it was 2.99 µM; in that of `CCCCCc1cc(=O)oc2c(C(CCN3CCCC(C)C3)c3ccc(OC)cc3)c(OC)cc(OC)c12` (configuration not stated), 5.33 µM.
